Results: the NIST ThermoML archive (doi:10.1021/je060271a)
Values joined by “and” are separate entries in the source; they are usually repeats but may differ in a detail not shown here. Identical values can stand only once.

Settings: 343.15 K, Liquid, Vibrating tube method

CCCCCCC(=O)OCC(COC(=O)CCCCCC)(COC(=O)CCCCCC)COC(=O)CCCCCC [pentaerythritol tetraheptanoate]
Settings	mass density
28615 kPa	960.4 kg/m3
28635 kPa	960.4 kg/m3
28662 kPa	960.4 kg/m3
28700 kPa	960.4 kg/m3
28729 kPa	960.5 kg/m3
28739 kPa	960.4 kg/m3
28764 kPa	960.6 kg/m3
28779 kPa	960.5 kg/m3
28794 kPa	960.6 kg/m3
28823 kPa	960.7 kg/m3
28826 kPa	960.6 kg/m3
28858 kPa	960.6 kg/m3
28865 kPa	960.6 kg/m3
28887 kPa	960.6 kg/m3
28912 kPa	960.6 kg/m3
28918 kPa	960.5 kg/m3
28948 kPa	960.6 kg/m3
28952 kPa	960.6 kg/m3
28985 kPa	960.7 kg/m3
28992 kPa	960.6 kg/m3
29016 kPa	960.7 kg/m3
29032 kPa	960.7 kg/m3
29046 kPa	960.8 kg/m3
29076 kPa	960.6 kg/m3
29081 kPa	960.7 kg/m3
29112 kPa	960.7 kg/m3
29121 kPa	960.5 kg/m3
29142 kPa	960.8 kg/m3
29163 kPa	960.7 kg/m3
29178 kPa	960.8 kg/m3
29208 kPa	960.9 kg/m3
29212 kPa	960.7 kg/m3
29238 kPa	960.8 kg/m3
29254 kPa	960.8 kg/m3
29274 kPa	960.9 kg/m3
29305 kPa	960.9 kg/m3
29308 kPa	960.7 kg/m3
29336 kPa	960.8 kg/m3
29344 kPa	960.9 kg/m3
29372 kPa	961 kg/m3
29387 kPa	960.8 kg/m3
29434 kPa	961 kg/m3
29435 kPa	960.9 kg/m3
29461 kPa	960.9 kg/m3
29471 kPa	961.1 kg/m3
29503 kPa	961 kg/m3
29534 kPa	961 kg/m3
29540 kPa	961 kg/m3
29564 kPa	961 kg/m3
29571 kPa	960.8 kg/m3
29597 kPa	961.1 kg/m3
29602 kPa	961.2 kg/m3
29628 kPa	960.8 kg/m3
29634 kPa	961.1 kg/m3
29654 kPa	961 kg/m3
29666 kPa	961 kg/m3
29679 kPa	961 kg/m3
29704 kPa	961.1 kg/m3
29705 kPa	961.1 kg/m3
29735 kPa	961.1 kg/m3
29736 kPa	961.1 kg/m3
29764 kPa	961.1 kg/m3
29767 kPa	961.1 kg/m3
29790 kPa	961.3 kg/m3
29805 kPa	961.3 kg/m3
29816 kPa	961.1 kg/m3
29839 kPa	961.1 kg/m3
29846 kPa	961.2 kg/m3
29871 kPa	961.3 kg/m3
29873 kPa	961.2 kg/m3
29900 kPa	961.1 kg/m3
29903 kPa	961.3 kg/m3
29931 kPa	961.1 kg/m3
29935 kPa	961.2 kg/m3
29958 kPa	961.1 kg/m3
29974 kPa	961.2 kg/m3
29984 kPa	961.3 kg/m3
30006 kPa	961.3 kg/m3
30016 kPa	961.3 kg/m3
30043 kPa	961.3 kg/m3
30045 kPa	961.4 kg/m3
30070 kPa	961.4 kg/m3
30077 kPa	961.3 kg/m3
30102 kPa	961.3 kg/m3
30109 kPa	961.4 kg/m3
30129 kPa	961.4 kg/m3
30148 kPa	961.4 kg/m3
30157 kPa	961.4 kg/m3
30180 kPa	961.4 kg/m3
30184 kPa	961.5 kg/m3
30213 kPa	961.5 kg/m3
30216 kPa	961.4 kg/m3
30243 kPa	961.5 kg/m3
30247 kPa	961.4 kg/m3
30275 kPa	961.4 kg/m3
30288 kPa	961.5 kg/m3
30302 kPa	961.4 kg/m3
30321 kPa	961.5 kg/m3
30330 kPa	961.5 kg/m3
30354 kPa	961.6 kg/m3
30363 kPa	961.5 kg/m3
30388 kPa	961.6 kg/m3
30391 kPa	961.6 kg/m3
30419 kPa	961.6 kg/m3
30428 kPa	961.5 kg/m3
30446 kPa	961.5 kg/m3
30461 kPa	961.6 kg/m3
30481 kPa	961.6 kg/m3
30495 kPa	961.6 kg/m3
30510 kPa	961.7 kg/m3
30528 kPa	961.6 kg/m3
30538 kPa	961.6 kg/m3
30568 kPa	961.6 kg/m3
30571 kPa	961.6 kg/m3
30599 kPa	961.6 kg/m3
30602 kPa	961.8 kg/m3
30627 kPa	961.7 kg/m3
30642 kPa	961.7 kg/m3
30660 kPa	961.6 kg/m3
30675 kPa	961.7 kg/m3
30688 kPa	961.8 kg/m3
30710 kPa	961.8 kg/m3
30716 kPa	961.7 kg/m3
30744 kPa	961.7 kg/m3
30778 kPa	961.7 kg/m3
30785 kPa	961.7 kg/m3
30806 kPa	961.8 kg/m3
30819 kPa	961.8 kg/m3
30835 kPa	961.8 kg/m3
30860 kPa	961.8 kg/m3
30870 kPa	961.7 kg/m3
30894 kPa	961.8 kg/m3
30900 kPa	961.7 kg/m3
30928 kPa	961.8 kg/m3 and 962 kg/m3
30956 kPa	961.9 kg/m3
30970 kPa	962 kg/m3
30990 kPa	961.7 kg/m3
31004 kPa	961.9 kg/m3
31019 kPa	961.9 kg/m3
31040 kPa	962.1 kg/m3
31048 kPa	961.8 kg/m3
31081 kPa	962 kg/m3
31082 kPa	961.8 kg/m3
31111 kPa	962 kg/m3
31116 kPa	962 kg/m3
31145 kPa	962.1 kg/m3
31151 kPa	962 kg/m3
31174 kPa	962.1 kg/m3
31193 kPa	962.1 kg/m3
31203 kPa	961.9 kg/m3
31229 kPa	962.1 kg/m3
31238 kPa	962 kg/m3
31264 kPa	962.1 kg/m3
31268 kPa	962 kg/m3
31298 kPa	962.1 kg/m3
31306 kPa	962 kg/m3
31327 kPa	962 kg/m3
31342 kPa	962.2 kg/m3
31362 kPa	962.1 kg/m3
31377 kPa	962 kg/m3
31392 kPa	962.1 kg/m3
31420 kPa	962.3 kg/m3
31427 kPa	962.1 kg/m3
31456 kPa	962 kg/m3
31457 kPa	962.2 kg/m3
31486 kPa	962.2 kg/m3
31492 kPa	962.3 kg/m3
31516 kPa	962.2 kg/m3
31528 kPa	962.2 kg/m3
31552 kPa	962.2 kg/m3
31571 kPa	962.3 kg/m3
31582 kPa	962.3 kg/m3
31608 kPa	962.4 kg/m3
31611 kPa	962.3 kg/m3
31644 kPa	962.3 kg/m3
31647 kPa	962.2 kg/m3
31678 kPa	962.4 kg/m3
31688 kPa	962.3 kg/m3
31715 kPa	962.3 kg/m3
31725 kPa	962.5 kg/m3
31745 kPa	962.3 kg/m3
31761 kPa	962.4 kg/m3
31775 kPa	962.4 kg/m3
31805 kPa	962.4 kg/m3
31807 kPa	962.4 kg/m3
31841 kPa	962.4 kg/m3
31844 kPa	962.4 kg/m3
31871 kPa	962.5 kg/m3
31874 kPa	962.4 kg/m3
31905 kPa	962.5 kg/m3
31914 kPa	962.5 kg/m3
31942 kPa	962.3 kg/m3
31958 kPa	962.4 kg/m3
31972 kPa	962.6 kg/m3
32003 kPa	962.4 kg/m3
32009 kPa	962.5 kg/m3
32040 kPa	962.6 kg/m3
32041 kPa	962.6 kg/m3
32071 kPa	962.6 kg/m3
32078 kPa	962.5 kg/m3
32104 kPa	962.5 kg/m3
32115 kPa	962.6 kg/m3
32136 kPa	962.5 kg/m3
32160 kPa	962.6 kg/m3
32173 kPa	962.5 kg/m3
32199 kPa	962.6 kg/m3
32205 kPa	962.6 kg/m3
32236 kPa	962.7 kg/m3
32237 kPa	962.7 kg/m3
32274 kPa	962.7 kg/m3
32282 kPa	962.7 kg/m3
32305 kPa	962.7 kg/m3
32320 kPa	962.7 kg/m3
32337 kPa	962.6 kg/m3
32358 kPa	962.7 kg/m3
32368 kPa	962.7 kg/m3
32403 kPa	962.8 kg/m3
32406 kPa	962.7 kg/m3
32438 kPa	962.8 kg/m3
32441 kPa	962.8 kg/m3
32471 kPa	962.8 kg/m3
32480 kPa	962.9 kg/m3
32509 kPa	962.8 kg/m3
